# According to US20190328753A1, “COMPOSITIONS AND METHODS FOR TREATING OCULAR DISEASES” (priority 2015, published 2019):
# Where “and” joins values, the source holds several entries; their conditions need not be identical. Equal entries are not always repeated.
# System: patients with moderate to severe MGD
# Assay: Clinical trial (Example 8): topical Spironolactone (3 mg/ml) in MGD, retrospective pre-post
# Details: for Obstruction, Mean / Turbidity, Mean / Vascularity, Mean / Zone A, Mean / Anterior Blepharitis, Mean / Anterior Blepharitis, mean change / Obstruction, mean change / Turbidity, mean change / Vascularity, mean change / Zone A, mean change: scale 0-4; for Global Evaluation, Mean / Global Evaluation, mean change / Subjective Global Assessment, Mean: scale 0-10
# [1] = follow-up 1, patients with >1 follow-ups, low Schirmer's, n=10
# [2] = follow-up 1, patients with >1 follow-ups, normal Schirmer's, n=28
# [3] = follow-up 1, patients with >1 follow-ups, normal Schirmer's, n=28, scale 0-3
# [4] = follow-up 1 vs final follow-up, low Schirmer's, n=10
# [5] = follow-up 1 vs final follow-up, low Schirmer's, n=10, scale 0-3
# [6] = follow-up 1 vs final follow-up, normal Schirmer's, n=28
# [7] = follow-up 1 vs final follow-up, normal Schirmer's, n=28, positive = score decrease
# [8] = follow-up 1 vs final follow-up, normal Schirmer's, n=28, scale 0-3
# [9] = post-treatment follow-up 1, low Schirmer's, n=27
# [10] = post-treatment follow-up 1, low Schirmer's, n=27, scale 0-3
# [11] = post-treatment follow-up 1, normal Schirmer's, n=75
# [12] = post-treatment follow-up 1, normal Schirmer's, n=75, scale 0-3
smiles,measurement,setting,value
"CC(=O)SC1CC2=CC(=O)CCC2(C)C2CCC3(C)C(CCC34CCC(=O)O4)C12 (stereo not drawn) [spironolactone, 7α-acetylthio-3-oxo-17α-pregn-4-ene-21,17-carbolactone]","Obstruction, Mean",[1],1.35±1.06 and 1.35
same,"Turbidity, Mean",[1],1.95±0.76 and 1.95
same,"Vascularity, Mean",[1],1.1±0.88 and 1.1
same,"Zone A, Mean",[1],2.55±0.98 and 2.55
same,"Global Evaluation, Mean",[1],4.15±2.07 and 4.15
same,"Schirmer's OD, Mean",[2],17.07±10.10 and 17.07
same,"Schirmer's OS, Mean",[2],17.50±10.42 and 17.5
same,"Vision OD, Mean",[2],0.07±0.20 log Mar units and 0.07437 log Mar units
same,"Vision OS, Mean",[2],0.09±0.15 log Mar units and 0.08826 log Mar units
same,"Keratitis OD Corneal, Mean",[3],0.0±0.0 and 0
same,"Keratitis OD Nasal, Mean",[3],0.64±0.72 and 0.6429
same,"Keratitis OD Temporal, Mean",[3],0.54±0.68 and 0.5357
same,"Keratitis OS Corneal, Mean",[3],0.14±0.52 and 0.1429
same,"Keratitis OS Nasal, Mean",[3],0.82±0.80 and 0.8214
same,"Keratitis OS Temporal, Mean",[3],0.71±0.80 and 0.7143
same,"Anterior Blepharitis, Mean",[2],0.29±0.50 and 0.2857
same,"Obstruction, Mean",[2],1.12±0.83 and 1.116
same,"Turbidity, Mean",[2],1.96±0.62 and 1.964
same,"Vascularity, Mean",[2],1.42±0.84 and 1.42
same,"Zone A, Mean",[2],2.59±0.82 and 2.589
same,"Global Evaluation, Mean",[2],4.32±1.53 and 4.321
same,"Schirmer's OD, mean change",[4],2.9±4.93 and 2.9
same,"Schirmer's OS, mean change",[4],1.56±6.25 and 1.556
same,"Vision OD, mean change",[4],0.06±0.10 log units and 0.06011 log units
same,"Vision OS, mean change",[4],0.02±0.07 log units and 0.0185 log units
same,mean improvement in obstruction score,"follow-up 1 vs final follow-up, low Schirmer's, n=10, positive = score decrease",0.6±1.13
same,"Keratitis OD Corneal, mean change",[5],0
same,"Keratitis OD Nasal, mean change",[5],0.15
same,"Keratitis OD Temporal, mean change",[5],0.05
same,"Keratitis OS Corneal, mean change",[5],0.1111
same,"Keratitis OS Nasal, mean change",[5],−0.2222
same,"Keratitis OS Temporal, mean change",[5],−0.1667
same,"Anterior Blepharitis, mean change",[4],−0.1±0.57 and −0.1
same,"Obstruction, mean change",[4],−0.6
same,"Turbidity, mean change",[4],0.15±0.82 and 0.15
same,"Vascularity, mean change",[4],0.3±0.63 and 0.3
same,"Zone A, mean change",[4],0.25±0.75 and 0.25
same,"Global Evaluation, mean change",[4],0.25±2.55 and 0.25
same,"Schirmer's OD, mean change",[6],1.77±9.01 and 1.778
same,improvement in self-reported global assessment scores,[7],0.77±1.36
same,mean improvement in obstruction score,[7],0.06±0.87
same,mean improvement in turbidity score,[7],0.16±1.00
same,mean improvement in vascularity score,[7],0.29±0.79
same,"Keratitis OD Corneal, mean change",[8],0.0±0.0 and 0
same,"Keratitis OD Temporal, mean change",[8],0.017±0.57 and 0.01786
same,"Keratitis OS Corneal, mean change",[8],0.018±0.21 and 0.01786
same,"Anterior Blepharitis, mean change",[6],0.04±0.64 and 0.03571
same,"Obstruction, mean change",[6],−0.0625
same,"Turbidity, mean change",[6],−0.1607
same,"Vascularity, mean change",[6],−0.2946
same,"Zone A, mean change",[6],0.13±0.69 and 0.125
same,"Global Evaluation, mean change",[6],−0.7679
same,time to improved symptoms of ocular irritation,"moderate to severe symptomatic MGD, 'as early as'",2 weeks
same,side effects after topical administration,patients of the clinical trial,A small percentage of the patients reported a mild temporary burning sensation in the eye
same,"Subjective Global Assessment, Mean","post-treatment follow-up 1, low Schirmer's (5 or less), n=27",3.78±1.68 and 3.778
same,"Schirmer's OD, Mean",[9],7.52±7.42 mm and 7.519 mm
same,"Schirmer's OS, Mean",[9],6.92±5.34 mm and 6.923 mm
same,"Vision OD, Mean",[9],0.05±0.12 log Mar units and 0.04681 log Mar units
same,"Vision OS, Mean",[9],0.13±0.30 log Mar units and 0.1307 log Mar units
same,"Keratitis OD Corneal, Mean",[10],0.07±0.38 and 0.07407
same,"Keratitis OD Nasal, Mean",[10],0.93±0.84 and 0.9259
same,"Keratitis OD Temporal, Mean",[10],0.74±0.91 and 0.7407
same,"Keratitis OS Corneal, Mean",[10],0.15±0.37 and 0.1538
same,"Keratitis OS Nasal, Mean",[10],1.19±0.87 and 1.192
same,"Keratitis OS Temporal, Mean",[10],0.96±0.82 and 0.9615
same,"Anterior Blepharitis, Mean",[9],0.41±0.71 and 0.4074
same,"Obstruction, Mean",[9],1.13±1.05 and 1.13
same,"Turbidity, Mean",[9],1.89±0.91 and 1.889
same,"Vascularity, Mean",[9],0.93±0.829 and 0.9259
same,"Zone A, Mean",[9],2.46±1.13 and 2.463
same,"Subjective Global Assessment, Mean","post-treatment follow-up 1, normal Schirmer's (>5), n=75",4.03±1.57 and 4.033
same,"Schirmer's OD, Mean",[11],16.47±9.75 mm and 16.47 mm
same,"Schirmer's OS, Mean",[11],16.95±9.61 mm and 16.95 mm
same,"Vision OD, Mean",[11],0.08±0.18 log Mar units and 0.07686 log Mar units
same,"Vision OS, Mean",[11],0.11±0.22 log Mar units and 0.1115 log Mar units
same,"Keratitis OD Corneal, Mean",[12],0.007±0.06 and 0.006757
same,"Keratitis OD Nasal, Mean",[12],0.64±0.68 and 0.6419
same,"Keratitis OD Temporal, Mean",[12],0.45±0.64 and 0.4527
same,"Keratitis OS Corneal, Mean",[12],0.07±0.34 and 0.06757
same,"Keratitis OS Nasal, Mean",[12],0.72±0.73 and 0.723
same,"Keratitis OS Temporal, Mean",[12],0.57±0.69 and 0.5743
same,"Anterior Blepharitis, Mean",[11],0.39±0.67 and 0.3867
same,"Obstruction, Mean",[11],0.98±0.69 and 0.9833
same,"Turbidity, Mean",[11],1.75±0.75 and 1.753
same,"Vascularity, Mean",[11],1.11±0.829 and 1.11
same,"Zone A, Mean",[11],2.51±0.88 and 2.513
